Earlier results, collected in US20100158905A1, “COMBINATION THERAPY OF ARTHRITIS WITH TRANILAST” (NUON THERAPEUTICS, INC., priority 2008, published 2010).

What was measured:
[1] = test system: rheumatoid arthritis; details: usual maintenance dose
[2] = test system: RA; details: used in combination with methotrexate

Compound	Approximate time to benefit [1]	improvements in treating RA [2]
CN(Cc1cnc2nc(N)nc(N)c2n1)c1ccc(C(=O)N[C@@H](CCC(=O)O)C(=O)O)cc1 [Methotrexate]	1-2 months	–
CC(C)(S)[C@@H](N)C(=O)O [D-penicillamine]	3-6 months	–
Cn1cnc([N+](=O)[O-])c1Sc1ncnc2nc[nH]c12 [Azathioprine]	2-3 months	–
O=C(O)c1cc(/N=N/c2ccc(S(=O)(=O)Nc3ccccn3)cc2)ccc1O [Sulfasalazine]	1-3 months	–
Etanercept	A few days to 12 weeks	marked improvements
Adalimumab	–	marked improvements
Cc1oncc1C(=O)Nc1ccc(C(F)(F)F)cc1 [Leflunomide]	4-12 weeks (skewed earlier)	–
CCN(CCO)CCCC(C)Nc1ccnc2cc(Cl)ccc12 (stereo not shown) [Hydroxychloroquine]	2-6 months	–
infliximab: tumor necrosis factor (TNF) antagonist	–	marked improvements
